Experimental data published in US11168089B2, “Fused pyrimidine derivatives as A2A / A2B inhibitors” (Incyte Corporation, priority 2018, dated 2021).

What was measured:
Adenosine A2A receptor = Adenosine A2A receptor (Homo sapiens (Human), UniProt P29274); experiment: A2A Tag-Lite HTRF assay; assay type: binding; settings: Tag-Lite Adenosine A2A labeled cells, displacement of A2A Receptor Red antagonist fluorescent ligand 12.5 nM; read-out: A2A_Ki
Excerpt: Example C. A2A Tag-Lite® HTRF Assay
The final concentration of DMSO was 1%.

[1] = target: human adenosine A2B receptor (Homo sapiens (Human), UniProt P29275); experiment: Adenosine A2B Receptor Cyclic AMP GS Assay; assay type: cell-based; settings: HEK-293 cells expressing human A2B receptor, agonist NECA 12 nM, cAMP accumulation; read-out: A2B_cAMP_EC50
human adenosine A2B receptor, sequence (P29275 whole entry): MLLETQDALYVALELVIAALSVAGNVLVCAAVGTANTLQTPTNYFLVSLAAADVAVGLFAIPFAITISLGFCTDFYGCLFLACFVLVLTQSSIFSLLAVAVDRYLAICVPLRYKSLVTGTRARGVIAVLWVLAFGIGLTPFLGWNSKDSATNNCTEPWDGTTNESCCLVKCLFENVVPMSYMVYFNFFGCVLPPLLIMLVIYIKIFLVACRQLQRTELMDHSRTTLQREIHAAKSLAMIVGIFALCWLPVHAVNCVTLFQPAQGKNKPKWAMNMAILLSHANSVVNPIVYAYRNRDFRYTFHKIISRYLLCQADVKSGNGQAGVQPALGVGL
Method: Example B. Adenosine A2B Receptor Cyclic AMP GS Assay
Stably transfected HEK-293 cells expressing the human adenosine A2B receptor (Perkin Elmer) were maintained in MEM culture medium with 10% FBS and 100 μg/mL Geneticin (Life Technologies). 18 to 24 hours prior to assay, geneticin was removed from culture. The cisbio cAMP-GS Dynamic kit utilizing the FRET (Fluorescence Resonance Energy Transfer) technology was used to measure cAMP accumulation in the cells. Compounds of the present disclosure at an appropriate concentration were mixed with 10000 cells/well in white 96 well half area plates (Perkin Elmer) for 30 min at room temperature gently shaking. Agonist, NECA (R&D Technologies) at 12 nM was added to each well for 60 min at room temperature gently shaking. Detection reagents, d2-labeled cAMP (acceptor) and anti-cAMP cryptate (donor) were added to each well for 60 min at RT gently shaking. Plates were read on Pherastar (BMG Labtech), fluorescence ratio 665/620 was calculated and EC50 determination was performed by fitting the curve of percent of control versus the log of the compound concentration using GraphPad Prism.

Adenosine A2A receptor, sequence (P29274 whole entry): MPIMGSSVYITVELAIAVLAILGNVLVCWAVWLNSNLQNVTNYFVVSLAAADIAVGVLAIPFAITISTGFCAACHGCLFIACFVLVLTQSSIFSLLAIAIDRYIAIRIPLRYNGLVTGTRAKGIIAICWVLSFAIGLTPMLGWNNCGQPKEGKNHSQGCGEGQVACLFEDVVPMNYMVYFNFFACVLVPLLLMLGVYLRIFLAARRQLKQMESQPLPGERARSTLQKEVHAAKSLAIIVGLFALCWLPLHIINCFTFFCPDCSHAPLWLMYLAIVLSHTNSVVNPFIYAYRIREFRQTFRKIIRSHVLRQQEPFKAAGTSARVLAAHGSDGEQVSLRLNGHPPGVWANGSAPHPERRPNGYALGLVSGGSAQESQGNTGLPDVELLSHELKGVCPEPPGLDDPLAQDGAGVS

| Compound | Ki (Adenosine A2A receptor) | EC50 [1] |
| --- | --- | --- |
| CN1CCC(NCc2cccc(F)c2Cc2nc3cc(-c4cccc(C#N)c4F)nc(N)n3n2)C1=O (stereo not drawn) [Example 29, 3-(5-Amino-2-(2-fluoro-6-(((1-methyl-2-oxopyrrolidin-3-yl)amino)methyl)benzyl)-[1,2,4]triazolo[1,5-c]pyrimidin-7-yl)-2-fluorobenzonitrile] | < 10 nM | 10 to 100 nM |
| CCN(Cc1cccc(F)c1Cc1nc2cc(-c3cccc(C#N)c3F)nc(N)n2n1)C1CCN(CC(=O)O)C1=O (stereo not drawn) [Example 30, 2-(3-((2-((5-Amino-7-(3-cyano-2-fluorophenyl)-[1,2,4]triazolo[1,5-c]pyrimidin-2-yl)methyl)-3-fluorobenzyl)(ethyl)amino)-2-oxopyrrolidin-1-yl)acetic acid] | < 10 nM | < 10 nM |
| CCN(Cc1cccc(F)c1Cc1nc2cc(-c3cccc(C#N)c3F)nc(N)n2n1)C1CCN(C)C1=O (stereo not drawn) [Example 31, 3-(5-Amino-2-(2-((ethyl(1-methyl-2-oxopyrrolidin-3-yl)amino)methyl)-6-fluorobenzyl)-[1,2,4]triazolo[1,5-c]pyrimidin-7-yl)-2-fluorobenzonitrile] | < 10 nM | < 10 nM |
| CCN(Cc1cccc(F)c1Cc1nc2cc(-c3cccc(C#N)c3F)nc(N)n2n1)[C@@H]1CCNC1=O [Example 32, (R)-3-(5-Amino-2-(2-((ethyl(2-oxopyrrolidin-3-yl)amino)methyl)-6-fluorobenzyl)-[1,2,4]triazolo[1,5-c]pyrimidin-7-yl)-2-fluorobenzonitrile] | < 10 nM | 10 to 100 nM |
| N#Cc1cccc(-c2cc3nc(NCc4cccc(-c5cnn(C6CCNCC6)c5)n4)nn3c(N)n2)c1F [Example 33, 3-(5-Amino-2-(((6-(1-(piperidin-4-yl)-1H-pyrazol-4-yl)pyridin-2-yl)methyl)amino)-[1,2,4]triazolo[1,5-c]pyrimidin-7-yl)-2-fluorobenzonitrile] | < 10 nM | < 10 nM |
| N#Cc1cccc(-c2cc3nc(NCc4cccc(-c5cnn(CCN6CCOCC6)c5)n4)nn3c(N)n2)c1F [Example 34, 3-(5-Amino-2-(((6-(1-(2-morpholinoethyl)-1H-pyrazol-4-yl)pyridin-2-yl)methyl)amino)-[1,2,4]triazolo[1,5-c]pyrimidin-7-yl)-2-fluorobenzonitrile] | < 10 nM | 10 to 100 nM |
